Data taken from patent US11912693B2, “Compounds for modulating S1P1 activity and methods of using the same” (TREVENA, INC., priority 2017, dated 2024).

What was measured:
[1] = test system: Freund's Complete Adjuvant induced inflammation / mechanical allodynia; assay: Tactile allodynia produced by intraplantar Freund's Complete Adjuvant in rats (Randall-Selitto); type: in vivo, rat; conditions: CFA model, 24 hours after CFA
Experimental: Animals were acclimated to the vivarium for at least 48 hr prior to behavioral testing. Inflammation was induced with the administration of an intraplantar (subcutaneous injection into the plantar surface of the hind paw, i.pl.) injection of 0.10 ml Freund's Complete Adjuvant (FCA). The experiments were conducted 24 hours after CFA administration. Rats are tested for mechanical allodynia in a Randall-Selitto apparatus. The inflamed paw is put on a pedestal and a pointed force of increasing intensity (0 to 250 grams) is applied to the paw. When the animal struggles to withdraw from the force the test is stopped and the force to induce that struggle is recorded. Data is presented as mean grams of force to withdrawal or a percentage of the maximum possible effect.

[2] = target: human sphingosine-1-phosphate receptor 2 (S1P2) (Homo sapiens (Human), UniProt O95136); assay: Inositol monophosphate production (IP-one TB kit), S1P2 CHO-K1 cells; type: cell-based; conditions: for hS1P2 IP-one pEC50: inositol monophosphate accumulation; for Emax: CHO-K1, efficacy normalized to CYM5520, read-out: hS1P2 IP-one SPAN
How it was run: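 Stable CHO-K1 cells expressing EA-β-arrestin2 and Prolink-tagged human S1P2, plated overnight, then exposed to compounds in IP-one stimulation buffer for 60 min at 37 °C. IP1 read by TR-FRET after 1 h at RT. Efficacy (SPAN) normalized to CYM5520; potency as pEC50.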

[3] = target: human sphingosine-1-phosphate receptor 3 (S1P3) (Homo sapiens (Human), UniProt Q99500); assay: Inhibition of cAMP production (HTRF), S1P3 CHO-K1 cells; type: cell-based; conditions: for hS1P3 cAMP pEC50: inhibition of cAMP production; for Emax: CHO-K1, efficacy normalized to fingolimod, read-out: hS1P3 cAMP SPAN
hERG channel = hERG channel (Homo sapiens (Human), UniProt Q12809); assay: Automated Qpatch patch-clamp hERG assay
[4] = target: human sphingosine-1-phosphate receptor 1 (S1P1) (Homo sapiens (Human), UniProt P21453); assay: β-Arrestin2 recruitment assay (PathHunter), S1P1 CHO-K1 cells; type: cell-based; conditions: for hS1P1 B-arrestin2 pEC50: β-arrestin2 recruitment, S1P1 CHO-K1 cells; for Emax: CHO-K1, read-out: hS1P1 B-arrestin2 SPAN
How it was run: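 Enzyme-fragment complementation read-out: agonist-driven β-arrestin2 binding to ProLink-tagged human S1P1 in stable CHO-K1 cells restores β-galactosidase, measured 1 h at room temperature after a 60 min 37° C. compound incubation. Potency as pEC50, efficacy relative to fingolimod (SPAN).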

[5] = efficacy (SPAN) normalized to fingolimod

Chain of human sphingosine-1-phosphate receptor 1 (S1P1) (P21453 whole entry, looked up, the tested form may be a part): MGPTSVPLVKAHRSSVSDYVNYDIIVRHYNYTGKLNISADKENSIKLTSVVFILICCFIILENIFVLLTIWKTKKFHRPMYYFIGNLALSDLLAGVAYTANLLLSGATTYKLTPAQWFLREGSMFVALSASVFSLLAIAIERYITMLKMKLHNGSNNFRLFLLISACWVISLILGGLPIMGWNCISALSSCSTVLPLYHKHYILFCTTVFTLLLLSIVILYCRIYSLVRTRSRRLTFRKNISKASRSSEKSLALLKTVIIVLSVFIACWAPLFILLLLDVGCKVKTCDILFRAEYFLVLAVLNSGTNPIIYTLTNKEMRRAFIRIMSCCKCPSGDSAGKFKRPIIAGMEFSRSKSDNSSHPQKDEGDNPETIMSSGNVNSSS
Chain of human sphingosine-1-phosphate receptor 1 (S1P1) (P32121 whole entry partner, looked up, the tested form may be a part): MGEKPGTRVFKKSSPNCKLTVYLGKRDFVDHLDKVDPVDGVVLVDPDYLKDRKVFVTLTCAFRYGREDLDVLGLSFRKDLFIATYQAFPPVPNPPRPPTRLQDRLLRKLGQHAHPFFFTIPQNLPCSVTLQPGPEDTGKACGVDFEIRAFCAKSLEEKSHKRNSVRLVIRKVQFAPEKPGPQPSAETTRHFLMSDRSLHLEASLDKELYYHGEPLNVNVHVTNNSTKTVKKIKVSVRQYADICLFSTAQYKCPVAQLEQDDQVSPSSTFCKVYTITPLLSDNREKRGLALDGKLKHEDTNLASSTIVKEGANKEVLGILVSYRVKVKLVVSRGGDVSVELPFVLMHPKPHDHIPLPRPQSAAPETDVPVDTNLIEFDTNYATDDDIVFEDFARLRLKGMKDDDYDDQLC
Chain of human sphingosine-1-phosphate receptor 3 (S1P3) (Q99500 whole entry): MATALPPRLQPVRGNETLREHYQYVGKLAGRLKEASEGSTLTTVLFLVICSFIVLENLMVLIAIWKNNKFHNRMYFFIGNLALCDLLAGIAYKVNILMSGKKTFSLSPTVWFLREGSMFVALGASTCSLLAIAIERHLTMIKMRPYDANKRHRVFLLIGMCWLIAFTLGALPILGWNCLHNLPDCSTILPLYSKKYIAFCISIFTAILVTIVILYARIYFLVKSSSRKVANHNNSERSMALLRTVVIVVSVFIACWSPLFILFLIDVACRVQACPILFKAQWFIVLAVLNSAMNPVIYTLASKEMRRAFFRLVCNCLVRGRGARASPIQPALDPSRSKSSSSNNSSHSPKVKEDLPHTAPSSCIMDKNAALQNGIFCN
Chain of human sphingosine-1-phosphate receptor 2 (S1P2) (O95136 whole entry): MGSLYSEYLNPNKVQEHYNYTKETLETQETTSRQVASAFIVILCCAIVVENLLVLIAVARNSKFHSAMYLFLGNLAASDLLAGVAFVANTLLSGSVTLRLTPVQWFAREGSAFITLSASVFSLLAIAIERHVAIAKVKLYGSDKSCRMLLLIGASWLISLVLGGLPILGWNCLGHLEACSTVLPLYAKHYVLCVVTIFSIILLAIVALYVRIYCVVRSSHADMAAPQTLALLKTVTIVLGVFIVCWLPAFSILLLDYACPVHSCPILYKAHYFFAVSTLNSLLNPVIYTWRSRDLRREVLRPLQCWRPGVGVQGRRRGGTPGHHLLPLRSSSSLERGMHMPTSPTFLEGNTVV
Chain of hERG channel (Q12809 whole entry): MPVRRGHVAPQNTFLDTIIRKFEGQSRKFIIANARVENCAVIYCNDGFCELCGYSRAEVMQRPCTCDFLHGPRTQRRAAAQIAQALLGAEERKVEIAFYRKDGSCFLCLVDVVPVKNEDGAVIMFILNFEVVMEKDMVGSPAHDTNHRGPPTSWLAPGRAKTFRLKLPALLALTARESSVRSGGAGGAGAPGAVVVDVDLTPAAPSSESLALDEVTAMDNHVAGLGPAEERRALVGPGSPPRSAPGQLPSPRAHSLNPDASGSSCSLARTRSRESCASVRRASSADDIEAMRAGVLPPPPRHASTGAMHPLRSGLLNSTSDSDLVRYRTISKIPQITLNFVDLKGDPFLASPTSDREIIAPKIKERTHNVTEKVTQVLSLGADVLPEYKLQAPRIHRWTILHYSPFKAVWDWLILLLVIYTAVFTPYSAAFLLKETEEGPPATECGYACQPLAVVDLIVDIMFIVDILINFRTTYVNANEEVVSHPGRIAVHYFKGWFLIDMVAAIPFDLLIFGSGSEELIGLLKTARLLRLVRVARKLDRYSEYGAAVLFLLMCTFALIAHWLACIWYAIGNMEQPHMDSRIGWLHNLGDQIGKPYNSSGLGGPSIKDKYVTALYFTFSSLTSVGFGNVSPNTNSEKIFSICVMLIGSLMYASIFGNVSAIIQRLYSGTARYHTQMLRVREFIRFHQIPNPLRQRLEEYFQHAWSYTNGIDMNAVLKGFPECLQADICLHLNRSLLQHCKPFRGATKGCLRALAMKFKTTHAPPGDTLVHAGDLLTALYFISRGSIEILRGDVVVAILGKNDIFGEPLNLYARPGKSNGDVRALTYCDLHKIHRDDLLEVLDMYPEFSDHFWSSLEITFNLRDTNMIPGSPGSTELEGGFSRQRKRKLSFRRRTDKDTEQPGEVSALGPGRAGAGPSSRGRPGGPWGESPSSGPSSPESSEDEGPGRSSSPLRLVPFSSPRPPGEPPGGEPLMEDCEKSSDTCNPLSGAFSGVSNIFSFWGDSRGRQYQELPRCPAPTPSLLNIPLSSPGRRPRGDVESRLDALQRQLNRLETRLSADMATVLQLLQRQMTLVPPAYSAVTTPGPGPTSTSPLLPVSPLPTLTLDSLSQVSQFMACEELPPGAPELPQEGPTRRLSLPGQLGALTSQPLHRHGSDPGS

COc1ccc(-c2noc(-c3ccc4c(c3)nnn4CC(C)(C)O)n2)c(C)c1 [Compound 26, 1-{5-[3-(4-methoxy-2-methylphenyl)-1,2,4-oxadiazol-5-yl]-1H-1,2,3-benzotriazol-1-yl}-2-methylpropan-2-ol]
Active Doses, mg/kg sc (>50% MPE) [1]: ≥0.1 mg/kg
hS1P2 IP-one pEC50 [2]: <5.0
hS1P3 cAMP pEC50 [3]: <5.0
IC50 (hERG channel): > 10 µM
hS1P1 B-arrestin2 SPAN [4, 5]: <75
hS1P1 B-arrestin2 pEC50 [4]: >5

Cc1ccccc1-c1nc(-c2ccc3c(c2)nnn3C(C)C)no1 [Compound 99, 3-(1-isopropyl-1H-benzo[d][1,2,3]triazol-5-yl)-5-(o-tolyl)-1,2,4-oxadiazole]
hS1P2 IP-one pEC50 [2]: <5.0
hS1P3 cAMP pEC50 [3]: <5.0
hS1P1 B-arrestin2 pEC50 [4]: >5

CCC1(CC)CC(=O)c2cc(-c3nc(-c4cccnc4)no3)ccc2O1 [Compound 103, 2,2-diethyl-6-[3-(pyridin-3-yl)-1,2,4-oxadiazol-5-yl]-3,4-dihydro-2H-1-benzopyran-4-one]
Active Doses, mg/kg sc (>50% MPE) [1]: ≥0.03 mg/kg
Emax [2]: < 50%
hS1P2 IP-one pEC50 [2]: <5.0
Emax [3]: < 50%
hS1P3 cAMP pEC50 [3]: <5.0
Emax [4, 5]: > 75%
hS1P1 B-arrestin2 pEC50 [4]: >5

CCC1(CC)CC(=O)c2cc(-c3nc(-c4cccnc4OC)no3)ccc2O1 [Compound 147, 2,2-diethyl-6-(3-(2-methoxypyridin-3-yl)-1,2,4-oxadiazol-5-yl)chroman-4-one]
Emax [2]: < 50%
hS1P2 IP-one pEC50 [2]: <5.0
Emax [3]: < 50%
hS1P3 cAMP pEC50 [3]: <5.0
Emax [4, 5]: > 75%
hS1P1 B-arrestin2 pEC50 [4]: >5

CCC1(CC)CC(=O)c2cc(-c3nc(-c4ccncc4OC)no3)ccc2O1 [Compound 212, 2,2-diethyl-6-(3-(3-methoxypyridin-4-yl)-1,2,4-oxadiazol-5-yl)chroman-4-one]
Active Doses, mg/kg sc (>50% MPE) [1]: ≥0.1 mg/kg
Emax [2]: < 50%
hS1P2 IP-one pEC50 [2]: <5.0
Emax [3]: < 50%
hS1P3 cAMP pEC50 [3]: <5.0
Emax [4, 5]: < 75%
hS1P1 B-arrestin2 pEC50 [4]: >5

COc1ccccc1-c1nc(-c2ccc3c(c2)nnn3C(C)C)no1 [Compound 287, 3-(1-isopropyl-1H-benzo[d][1,2,3]triazol-5-yl)-5-(2-methoxyphenyl)-1,2,4-oxadiazole]
hS1P2 IP-one pEC50 [2]: <5.0
hS1P3 cAMP pEC50 [3]: <5.0
hS1P1 B-arrestin2 pEC50 [4]: >5

Cc1ccccc1-c1noc(-c2ccc3c(c2)nnn3C(C)C)n1 [Compound 293, 5-[3-(2-methylphenyl)-1,2,4-oxadiazol-5-yl]-1-(propan-2-yl)-1H-1,2,3-benzotriazole]
Active Doses, mg/kg sc (>50% MPE) [1]: ≥0.1 mg/kg
Emax [2]: < 50%
hS1P2 IP-one pEC50 [2]: <5.0
Emax [3]: < 50%
hS1P3 cAMP pEC50 [3]: <5.0
Emax [4, 5]: > 75%
hS1P1 B-arrestin2 pEC50 [4]: >5

CC(C)n1nnc2cc(-c3nc(-c4cccc5c4OCCC5)no3)ccc21 [Compound 304, 3-chroman-8-yl-5-(1-isopropylbenzotriazol-5-yl)-1,2,4-oxadiazole]
hS1P2 IP-one pEC50 [2]: <5.0
hS1P3 cAMP pEC50 [3]: >5.0
IC50 (hERG channel): > 10 µM
hS1P1 B-arrestin2 pEC50 [4]: >5

CC(C)n1nnc2cc(-c3nc(-c4ccncc4C(F)(F)F)no3)ccc21 [Compound 455, 1-(propan-2-yl)-5-{3-[3-(trifluoromethyl)pyridin-4-yl]-1,2,4-oxadiazol-5-yl}-1H-1,2,3-benzotriazole]
Emax [2]: < 50%
hS1P2 IP-one pEC50 [2]: <5.0
Emax [3]: < 50%
hS1P3 cAMP pEC50 [3]: <5.0
Emax [4, 5]: > 75%
hS1P1 B-arrestin2 pEC50 [4]: >5

CCC1(CC)CC(=O)c2cc(-c3nc(-c4cn[nH]c4)no3)ccc2O1 [Compound 469, 6-(3-(1H-pyrazol-4-yl)-1,2,4-oxadiazol-5-yl)-2,2-diethylchroman-4-one]
Active Doses, mg/kg sc (>50% MPE) [1]: ≥0.01 mg/kg
IC50 (hERG channel): > 10 µM
Emax [4, 5]: > 75%
hS1P1 B-arrestin2 pEC50 [4]: >5
